Results on 17 compounds are retold here after PubChem BioAssay AID270 (DTP/NCI, 2004).

Where “and” joins values, the source holds several entries; their conditions need not be identical. Identical values can stand only once. Results filed as inconclusive are left out.

This assay deals with BDF1 mice, s.c. Lewis lung carcinoma, T/C %. Put plainly: NCI In Vivo Anticancer Drug Screen. Data for tumor model Lewis Lung Carcinoma (subcutaneous) in B6D2F1 (BDF1) mice. In outline:
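First, mice carry a transplantable tumor. Next, groups receive either compound or vehicle. Finally, survival or tumor dimensions in the dosed animals are divided by the corresponding control figure.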

The mark [1] stands for this setting: endpoint: mean tumor weight, dose: 50.0 mg/kg/injection, schedule: Q01DX011 (ip), vehicle: carboxymethylcellulose (CMC), higher = larger tumour.
Where [2] appears, read: endpoint: median survival time, dose: 37.5 mg/kg/injection, schedule: Q01DX009 (ip), vehicle: Klucel (hydroxypropylcellulose) (HPC), higher = longer survival.
The mark [3] stands for this setting: endpoint: median survival time, dose: 75.0 mg/kg/injection, schedule: Q01DX009 (ip), vehicle: Klucel (hydroxypropylcellulose) (HPC), higher = longer survival.
The mark [4] stands for this setting: endpoint: median survival time, dose: 5.0 mg/kg/injection, schedule: Q01DX009 (ip), vehicle: water, higher = longer survival.
Where [5] appears, read: endpoint: median survival time, dose: 20.0 mg/kg/injection, schedule: Q01DX009 (ip), vehicle: water, higher = longer survival.

With `O=c1[nH]c2cc(Cl)c(Cl)cc2o1`, the T/C was 79 % of control (endpoint: mean tumor weight, dose: 22.0 mg/kg/injection, schedule: Q01DX011 (ip), vehicle: carboxymethylcellulose (CMC), higher = larger tumour); 93 % of control (endpoint: mean tumor weight, dose: 35.0 mg/kg/injection, schedule: Q01DX011 (ip), vehicle: carboxymethylcellulose (CMC), higher = larger tumour); 95 % of control under setting [1]; 77 % of control and 84 % of control (endpoint: mean tumor weight, dose: 75.0 mg/kg/injection, schedule: Q01DX011 (ip), vehicle: carboxymethylcellulose (CMC), higher = larger tumour); 114 % of control (endpoint: mean tumor weight, dose: 115.0 mg/kg/injection, schedule: Q01DX011 (ip), vehicle: carboxymethylcellulose (CMC), higher = larger tumour).

For `Cc1ccc(C(=O)/C=C/c2ccccc2O)cc1`, the T/C by setting is: under setting [2], 105 % of control; under setting [3], 111 % of control; (endpoint: median survival time, dose: 150.0 mg/kg/injection, schedule: Q01DX009 (ip), vehicle: Klucel (hydroxypropylcellulose) (HPC), higher = longer survival) 108 % of control; (endpoint: median survival time, dose: 300.0 mg/kg/injection, schedule: Q01DX009 (ip), vehicle: Klucel (hydroxypropylcellulose) (HPC), higher = longer survival) 89 % of control.

As to `COc1cc2c(cc1OC)-c1ccc3cc4c(cc3c1N(C)C2)OCO4`, the T/C by setting is: under setting [4], 89 % of control; under setting [5], 105 % of control; (endpoint: median survival time, dose: 40.0 mg/kg/injection, schedule: Q01DX009 (ip), vehicle: water, higher = longer survival) 89 % of control; (endpoint: median survival time, dose: 80.0 mg/kg/injection, schedule: Q01DX009 (ip), vehicle: water, higher = longer survival) 98 % of control.

As for `COc1ccc(CN(CCOC(=O)c2ccc(OC)cc2)CCN(CCOC(=O)c2ccc(OC)cc2)Cc2ccc(OC)cc2)cc1`, the T/C by setting is: (endpoint: median survival time, dose: 25.0 mg/kg/injection, schedule: Q01DX009 (ip), vehicle: other, higher = longer survival) 100 % of control; (endpoint: median survival time, dose: 50.0 mg/kg/injection, schedule: Q01DX009 (ip), vehicle: other, higher = longer survival) 98 % of control; (endpoint: median survival time, dose: 100.0 mg/kg/injection, schedule: Q01DX009 (ip), vehicle: other, higher = longer survival) 93 % of control; (endpoint: median survival time, dose: 200.0 mg/kg/injection, schedule: Q01DX009 (ip), vehicle: other, higher = longer survival) 100 % of control.

Take `COC(C(=O)C(O)C(C)O)C1Cc2cc3cc(OC4CC(OC(C)=O)C(OC5CC(O)C(OC)C(C)O5)C(C)O4)cc(O)c3c(O)c2C(=O)C1OC1CC(OC2CC(OC3CC(C)(O)C(OC(=O)C(C)C)C(C)O3)C(O)C(C)O2)C(O)C(C)O1` (stereo not given): the T/C by setting is: (endpoint: median survival time, dose: 0.5 mg/kg/injection, schedule: Q01DX009 (ip), vehicle: saline with Tween-80, higher = longer survival) 97 % of control; (endpoint: median survival time, dose: 2.0 mg/kg/injection, schedule: Q01DX009 (ip), vehicle: saline with Tween-80, higher = longer survival) 94 % of control.

Turning to `Clc1cccc(Br)c1`, the T/C by setting is: (endpoint: mean tumor weight, dose: 25.0 mg/kg/injection, schedule: Q01DX011 (ip), vehicle: other, higher = larger tumour) 95 % of control; (endpoint: mean tumor weight, dose: 50.0 mg/kg/injection, schedule: Q01DX011 (ip), vehicle: other, higher = larger tumour) 81 % of control; (endpoint: mean tumor weight, dose: 100.0 mg/kg/injection, schedule: Q01DX011 (ip), vehicle: other, higher = larger tumour) 58 % of control; (endpoint: mean tumor weight, dose: 200.0 mg/kg/injection, schedule: Q01DX011 (ip), vehicle: other, higher = larger tumour) 30 % of control.

For the compound `CN(C)c1nc(N(C)C)nc(N(C)C)n1`, the T/C runs as follows: (endpoint: median survival time, dose: 6.25 mg/kg/injection, schedule: Q08HX024 (ip), vehicle: Klucel (hydroxypropylcellulose) (HPC), higher = longer survival) 106 % of control; (endpoint: median survival time, dose: 12.5 mg/kg/injection, schedule: Q01DX009 (ip), vehicle: saline with Tween-80, higher = longer survival) 93 % of control and 102 % of control; (endpoint: median survival time, dose: 25.0 mg/kg/injection, schedule: Q01DX009 (ip), vehicle: saline with Tween-80, higher = longer survival) 97 % of control and 102 % of control; (endpoint: median survival time, dose: 25.0 mg/kg/injection, schedule: Q08HX024 (ip), vehicle: Klucel (hydroxypropylcellulose) (HPC), higher = longer survival) 112 % of control; (endpoint: median survival time, dose: 50.0 mg/kg/injection, schedule: Q01DX009 (ip), vehicle: saline with Tween-80, higher = longer survival) 103 % of control and 110 % of control; (endpoint: median survival time, dose: 100.0 mg/kg/injection, schedule: Q01DX009 (ip), vehicle: saline with Tween-80, higher = longer survival) 102 % of control.

As for `CCCOP(=S)(N1CC1)N1CC1`, the T/C is, setting by setting: (endpoint: median survival time, dose: 18.75 mg/kg/injection, schedule: Q01DX009 (ip), vehicle: Klucel (hydroxypropylcellulose) (HPC), higher = longer survival) 112 % of control; under setting [2], 95 % of control; under setting [3], 94 % of control; (endpoint: median survival time, dose: 100.0 mg/kg/injection, schedule: Q01DX009 (ip), vehicle: saline, higher = longer survival) 116 % of control.

In the case of `COC1C(O)=C2C(=O)OC(C)(O)/C=C/C=C\C=C/C=C/C(c3ccccc3)NC(=O)/C=C/C=C/C=C/C=C/C2(C)C1O` (stereo not given), the T/C is, setting by setting: (endpoint: median survival time, dose: 0.12 mg/kg/injection, schedule: Q01DX009 (ip), vehicle: saline, higher = longer survival) 92 % of control; (endpoint: median survival time, dose: 0.25 mg/kg/injection, schedule: Q01DX009 (ip), vehicle: saline, higher = longer survival) 95 % of control; (endpoint: median survival time, dose: 0.5 mg/kg/injection, schedule: Q01DX009 (ip), vehicle: saline, higher = longer survival) 100 % of control; (endpoint: median survival time, dose: 0.62 mg/kg/injection, schedule: Q01DX009 (ip), vehicle: saline, higher = longer survival) 113 % of control; (endpoint: median survival time, dose: 2.5 mg/kg/injection, schedule: Q01DX009 (ip), vehicle: saline, higher = longer survival) 91 % of control.

For `O=NN(CCCl)C(=O)Nc1ccc(CCCl)cc1`, the T/C runs as follows: (endpoint: mean tumor weight, dose: 1.5 mg/kg/injection, schedule: Q01DX001 (ip), vehicle: carboxymethylcellulose (CMC), higher = larger tumour) 91 % of control; (endpoint: mean tumor weight, dose: 3.0 mg/kg/injection, schedule: Q01DX001 (ip), vehicle: carboxymethylcellulose (CMC), higher = larger tumour) 106 % of control; (endpoint: mean tumor weight, dose: 6.0 mg/kg/injection, schedule: Q01DX001 (ip), vehicle: carboxymethylcellulose (CMC), higher = larger tumour) 90 % of control; (endpoint: mean tumor weight, dose: 12.0 mg/kg/injection, schedule: Q01DX001 (ip), vehicle: carboxymethylcellulose (CMC), higher = larger tumour) 52 % of control.

In the case of `CCn1c2ccccc2c2cc(NC(=O)N(CCCl)N=O)ccc21`, the T/C is, setting by setting: (endpoint: median survival time, dose: 50.0 mg/kg/injection, schedule: Q01DX001 (ip), vehicle: saline with Tween-80, higher = longer survival) 89 % of control; (endpoint: median survival time, dose: 100.0 mg/kg/injection, schedule: Q01DX001 (ip), vehicle: saline with Tween-80, higher = longer survival) 96 % of control.

As to `CC1=C/C(O)CC(=O)Cc2nc(co2)C(=O)N2CCC=C2C(=O)OC(C(C)C)C(C)/C=C\C(=O)NC/C=C\1` (stereo not given), the T/C reads like this: (endpoint: median survival time, dose: 0.5 micrograms/kg/injection, schedule: Q01DX009 (ip), vehicle: saline, higher = longer survival) 103 % of control; (endpoint: median survival time, dose: 1.0 micrograms/kg/injection, schedule: Q01DX009 (ip), vehicle: saline, higher = longer survival) 94 % of control; (endpoint: median survival time, dose: 2.0 micrograms/kg/injection, schedule: Q01DX009 (ip), vehicle: saline, higher = longer survival) 98 % of control; (endpoint: median survival time, dose: 4.0 micrograms/kg/injection, schedule: Q01DX009 (ip), vehicle: saline, higher = longer survival) 99 % of control.

For `COc1cc2c[n+](C)c3c4cc5c(cc4ccc3c2cc1OC)OCO5`, the T/C under setting [4] is 103 % of control; the T/C (endpoint: median survival time, dose: 10.0 mg/kg/injection, schedule: Q01DX009 (ip), vehicle: water, higher = longer survival) was 107 % of control; the T/C under setting [5] was 87 % of control.

Take `Nc1nc(=O)n(C2CC(O)C(CO)O2)cc1Br` (stereo not given): the T/C is 65 % of control under setting [1]; 55 % of control (endpoint: mean tumor weight, dose: 100.0 mg/kg/injection, schedule: Q01DX011 (ip), vehicle: carboxymethylcellulose (CMC), higher = larger tumour); 64 % of control (endpoint: mean tumor weight, dose: 200.0 mg/kg/injection, schedule: Q01DX011 (ip), vehicle: carboxymethylcellulose (CMC), higher = larger tumour); 88 % of control (endpoint: mean tumor weight, dose: 400.0 mg/kg/injection, schedule: Q01DX011 (ip), vehicle: carboxymethylcellulose (CMC), higher = larger tumour); 34 % of control (endpoint: mean tumor weight, dose: 800.0 mg/kg/injection, schedule: Q01DX011 (ip), vehicle: carboxymethylcellulose (CMC), higher = larger tumour).

On to `CC(=O)c1c(O)c(C)c(O)c2c1OC1=CC(=O)C(C(C)=O)C(=O)C12C` (stereo not given), for which the T/C is 111 % of control (endpoint: median survival time, dose: 6.25 mg/kg/injection, schedule: Q01DX009 (ip), vehicle: gum acacia, higher = longer survival); 95 % of control and 110 % of control (endpoint: median survival time, dose: 12.5 mg/kg/injection, schedule: Q01DX009 (ip), vehicle: gum acacia, higher = longer survival); 101 % of control and 102 % of control and 123 % of control (endpoint: median survival time, dose: 25.0 mg/kg/injection, schedule: Q01DX009 (ip), vehicle: gum acacia, higher = longer survival); 101 % of control and 113 % of control and 115 % of control (endpoint: median survival time, dose: 50.0 mg/kg/injection, schedule: Q01DX009 (ip), vehicle: gum acacia, higher = longer survival); 98 % of control and 116 % of control and 123 % of control (endpoint: median survival time, dose: 100.0 mg/kg/injection, schedule: Q01DX009 (ip), vehicle: gum acacia, higher = longer survival); 106 % of control (endpoint: median survival time, dose: 200.0 mg/kg/injection, schedule: Q01DX009 (ip), vehicle: gum acacia, higher = longer survival).

In the case of `O=CNCCNC=O`, the T/C (endpoint: mean tumor weight, dose: 148.0 mg/kg/injection, schedule: Q01DX011 (ip), vehicle: saline, higher = larger tumour) was 96 % of control; the T/C (endpoint: mean tumor weight, dose: 333.0 mg/kg/injection, schedule: Q01DX011 (ip), vehicle: saline, higher = larger tumour) is 98 % of control; the T/C (endpoint: mean tumor weight, dose: 500.0 mg/kg/injection, schedule: Q01DX011 (ip), vehicle: saline, higher = larger tumour) is 115 % of control.

Turning to `O=c1ccn(C2OC(CO)C(O)C2O)c(=O)[nH]1` (stereo not given), the T/C runs as follows: (endpoint: median survival time, dose: 0.2 mg/kg/injection, schedule: Q01DX011 (adlb), vehicle: water, higher = longer survival) 97 % of control and 119 % of control; (endpoint: median survival time, dose: 0.6 mg/kg/injection, schedule: Q01DX011 (adlb), vehicle: water, higher = longer survival) 103 % of control; (endpoint: median survival time, dose: 1.0 mg/kg/injection, schedule: Q01DX011 (adlb), vehicle: water, higher = longer survival) 86 % of control; (endpoint: median survival time, dose: 1.5 mg/kg/injection, schedule: Q01DX011 (adlb), vehicle: water, higher = longer survival) 106 % of control; (endpoint: median survival time, dose: 2.0 mg/kg/injection, schedule: Q01DX011 (adlb), vehicle: water, higher = longer survival) 76 % of control and 100 % of control.
